Reference: PubChem BioAssay AID1919008 (Molecular Pharmacology Branch, DTP, NCI, 2023)

Tested on: DMS-114 complex spheroids with HUVEC/MSC, growth % test/control
Test: Anticancer human tumor DMS-114 cell line growth inhibition [AhR];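 also: spheroids exposed to agents for 7 days before readout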;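 as to viability, T/C: 100% = DMSO vehicle control wells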
Details: for IC50: curve of first compound; for viability, T/C: stronger effect = lower value
In short: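 Complex tumor spheroids co-cultured with HUVEC and human MSC stroma; AhR antagonists tested in combination with standard-of-care and investigational agents. Top concentration at or near clinical Cmax (else 10 microM), half-log dilutions; growth expressed as percent test/control.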

[1] = second compound 0.1 µM, first compound 0.0316 µM
[2] = second compound 0.1 µM, first compound 0.1 µM
[3] = second compound 0.1 µM, first compound 0.316 µM
[4] = second compound 0.1 µM, first compound 1 µM
[5] = second compound 0.1 µM, first compound 3.16 µM
[6] = second compound 0.1 µM, first compound 10 µM
[7] = second compound 0.316 µM, first compound 0.0316 µM
[8] = second compound 0.316 µM, first compound 0.1 µM
[9] = second compound 0.316 µM, first compound 0.316 µM
[10] = second compound 0.316 µM, first compound 1 µM
[11] = second compound 0.316 µM, first compound 3.16 µM
[12] = second compound 0.316 µM, first compound 10 µM
[13] = second compound 1 µM, first compound 0.0316 µM
[14] = second compound 1 µM, first compound 0.1 µM
[15] = second compound 1 µM, first compound 0.316 µM
[16] = second compound 1 µM, first compound 1 µM
[17] = second compound 1 µM, first compound 3.16 µM
[18] = second compound 1 µM, first compound 10 µM
[19] = second compound 3.16 µM, first compound 0.0316 µM
[20] = second compound 3.16 µM, first compound 0.1 µM
[21] = second compound 3.16 µM, first compound 0.316 µM
[22] = second compound 3.16 µM, first compound 1 µM
[23] = second compound 3.16 µM, first compound 3.16 µM
[24] = second compound 3.16 µM, first compound 10 µM
[25] = second compound 10 µM, first compound 0.0316 µM
[26] = second compound 10 µM, first compound 0.1 µM
[27] = second compound 10 µM, first compound 0.316 µM
[28] = second compound 10 µM, first compound 1 µM
[29] = second compound 10 µM, first compound 3.16 µM
[30] = second compound 10 µM, first compound 10 µM
[31] = second compound 0.1 µM, first compound 0.00316 µM
[32] = second compound 0.1 µM, first compound 0.01 µM
[33] = second compound 0.316 µM, first compound 0.00316 µM
[34] = second compound 0.316 µM, first compound 0.01 µM
[35] = second compound 1 µM, first compound 0.00316 µM
[36] = second compound 1 µM, first compound 0.01 µM
[37] = second compound 3.16 µM, first compound 0.00316 µM
[38] = second compound 3.16 µM, first compound 0.01 µM
[39] = second compound 10 µM, first compound 0.00316 µM
[40] = second compound 10 µM, first compound 0.01 µM

SMILES	IC50 (second compound 0.1 µM)	IC50 (second compound 0.316 µM)	IC50 (second compound 1 µM)	IC50 (second compound 3.16 µM)	IC50 (second compound 10 µM)	viability, T/C [1]	viability, T/C [2]	viability, T/C [3]	viability, T/C [4]	viability, T/C [7]	viability, T/C [8]	viability, T/C [9]	viability, T/C [10]	viability, T/C [13]	viability, T/C [14]	viability, T/C [15]	viability, T/C [19]	viability, T/C [20]	viability, T/C [25]	viability, T/C [26]	further results
CC(C)c1c(-c2ccccc2)nc2c(C#N)c[nH]n2c1=O + CC(CO)NC(=O)c1cc(-c2ccc(Cl)cc2)nn(-c2cnn(C)c2)c1=O	> 10000 nM	> 10000 nM	> 10000 nM	> 10000 nM	> 10000 nM	93.8%	95.8%	93.8%	95.7%	96.8%	98.5%	101%	98.9%	93.7%	100%	89.6%	103%	96.6%	103%	105%	viability, T/C [5]: 113%; viability, T/C [6]: 108%; viability, T/C [11]: 110%; viability, T/C [12]: 113%; viability, T/C [16]: 97.7%; viability, T/C [17]: 97.3%; viability, T/C [18]: 103%; viability, T/C [21]: 95.1%; viability, T/C [22]: 94.6%; viability, T/C [23]: 92.3%; viability, T/C [24]: 105%; viability, T/C [27]: 96.1%; viability, T/C [28]: 104%; viability, T/C [29]: 99.5%; viability, T/C [30]: 113%
CC[C@@]1(O)C(=O)OCc2c1cc1n(c2=O)Cc2cc3c(CN(C)C)c(O)ccc3nc2-1 + Cc1ccccc1N=Nc1ccc(NC(=O)c2ccnn2C)c(C)c1	61.1 nM	65.1 nM	71.2 nM	74.1 nM	61.2 nM	66.2%	38%	–	–	61.7%	43%	–	–	65%	43.7%	–	68.5%	43.5%	58%	44.1%	viability, T/C (second compound 0.1 µM, first compound 0.000316 µM): 99.3%; viability, T/C (second compound 0.1 µM, first compound 0.001 µM): 102%; viability, T/C [31]: 97.8%; viability, T/C [32]: 88.6%; viability, T/C (second compound 0.316 µM, first compound 0.000316 µM): 95%; viability, T/C (second compound 0.316 µM, first compound 0.001 µM): 106%; viability, T/C [33]: 100%; viability, T/C [34]: 102%; viability, T/C (second compound 1 µM, first compound 0.000316 µM): 99.2%; viability, T/C (second compound 1 µM, first compound 0.001 µM): 92.3%; viability, T/C [35]: 99.6%; viability, T/C [36]: 94%; viability, T/C (second compound 3.16 µM, first compound 0.000316 µM): 89.2%; viability, T/C (second compound 3.16 µM, first compound 0.001 µM): 92.1%; viability, T/C [37]: 93.2%; viability, T/C [38]: 83.4%; viability, T/C (second compound 10 µM, first compound 0.000316 µM): 91.8%; viability, T/C (second compound 10 µM, first compound 0.001 µM): 92.2%; viability, T/C [39]: 92.1%; viability, T/C [40]: 87.6%
COc1cc(C2c3cc4c(cc3C(OC3OC5COC(C)OC5C(O)C3O)C3COC(=O)C23)OCO4)cc(OC)c1O (stereo not given) + Cc1ccccc1N=Nc1ccc(NC(=O)c2ccnn2C)c(C)c1	1740 nM	1760 nM	1470 nM	1650 nM	1750 nM	99.4%	99.1%	93.4%	59.7%	105%	100%	84.4%	56.9%	97.7%	92.4%	84.4%	100%	96.4%	90.7%	92.5%	viability, T/C [5]: 40.4%; viability, T/C [6]: 26.5%; viability, T/C [11]: 43%; viability, T/C [12]: 25.5%; viability, T/C [16]: 52.2%; viability, T/C [17]: 43.6%; viability, T/C [18]: 29.6%; viability, T/C [21]: 81.7%; viability, T/C [22]: 59.4%; viability, T/C [23]: 37.9%; viability, T/C [24]: 26.4%; viability, T/C [27]: 82.7%; viability, T/C [28]: 57.6%; viability, T/C [29]: 42.2%; viability, T/C [30]: 27.7%
COc1cccc2c1C(=O)c1c(O)c3c(c(O)c1C2=O)CC(O)(C(=O)CO)CC3OC1CC(N)C(O)C(C)O1 (stereo not given) + Cc1ccccc1N=Nc1ccc(NC(=O)c2ccnn2C)c(C)c1	81.6 nM	110 nM	107 nM	104 nM	98.4 nM	71.6%	44.9%	17.1%	1.65%	75.5%	52.5%	19.4%	1.84%	71.4%	51.8%	18.3%	71%	50.7%	68.7%	48.8%	viability, T/C [5]: 0.32%; viability, T/C [6]: 0.78%; viability, T/C [11]: 0.33%; viability, T/C [12]: 1.22%; viability, T/C [16]: 2.28%; viability, T/C [17]: 0.52%; viability, T/C [18]: 0.56%; viability, T/C [21]: 19.3%; viability, T/C [22]: 1.97%; viability, T/C [23]: 0.59%; viability, T/C [24]: 0.61%; viability, T/C [27]: 21.6%; viability, T/C [28]: 1.61%; viability, T/C [29]: 0.52%; viability, T/C [30]: 0.7%
Nc1ccn(C2OC(CO)C(O)C2(F)F)c(=O)n1 (stereo not given) + Cc1ccccc1N=Nc1ccc(NC(=O)c2ccnn2C)c(C)c1	< 31.6 nM	< 31.6 nM	< 31.6 nM	< 31.6 nM	< 31.6 nM	21.8%	23.8%	25.1%	23.9%	25.6%	28.2%	26.3%	23%	25.5%	24.6%	26.5%	25.4%	27.7%	29.2%	32.7%	viability, T/C [5]: 25.7%; viability, T/C [6]: 25.5%; viability, T/C [11]: 23.2%; viability, T/C [12]: 24.2%; viability, T/C [16]: 23.7%; viability, T/C [17]: 26.4%; viability, T/C [18]: 25.7%; viability, T/C [21]: 28.3%; viability, T/C [22]: 24.9%; viability, T/C [23]: 26.8%; viability, T/C [24]: 28.5%; viability, T/C [27]: 29.4%; viability, T/C [28]: 31.7%; viability, T/C [29]: 31.7%; viability, T/C [30]: 30%
Nc1ncn(C2CC(O)C(CO)O2)c(=O)n1 (stereo not given) + Cc1ccccc1N=Nc1ccc(NC(=O)c2ccnn2C)c(C)c1	> 1000 nM	> 1000 nM	> 1000 nM	> 1000 nM	> 1000 nM	103%	117%	104%	105%	104%	113%	96.3%	104%	108%	101%	95.4%	95.7%	99.8%	92.1%	91%	viability, T/C [31]: 111%; viability, T/C [32]: 105%; viability, T/C [33]: 103%; viability, T/C [34]: 95.4%; viability, T/C [35]: 109%; viability, T/C [36]: 104%; viability, T/C [16]: 106%; viability, T/C [37]: 115%; viability, T/C [38]: 96.2%; viability, T/C [21]: 99.7%; viability, T/C [22]: 97.7%; viability, T/C [39]: 98.8%; viability, T/C [40]: 98.1%; viability, T/C [27]: 105%; viability, T/C [28]: 87.6%
